Experimental data published in patent US7790740B2 (priority 2003, dated 2010).
Read-outs that look alike come from different tables or passages of the source.

Columns and labels:
HIV-1 fusion = experiment: gp160 induced cell-cell fusion assay (HeLa P4 / CHO-Tat10); type: cell-based; conditions: Human immunodeficiency virus 1, HeLaP4, read-out: IC50 against HIV-1 fusion (gp160 induced cell-cell fusion)
Experimental: The gp160 induced cell-cell fusion assay uses a HeLa P4 cell line and a CHO-Tat10 cell line.
The HeLa P4 cell line expresses CCR5 and CD4 and has been transfected with HIV-1 LTR-β-Galactosidase. The media for this cell line is Dulbecco modified eagle's medium (D-MEM) (without L-glutamine) containing 10% foetal calf serum (FCS), 2 mM L-glutamine penicillin/streptomycin (Pen/Strep; 100 U/mL penicillin+[…] streptomycin), and 1 μg/ml puromycin.
The CHO cell line is a Tat (transcriptional trans activator)-expressing clone from a CHO JRR17.1 cell line that has been transfected with pTat puro plasmid. […]
Upon cell fusion, Tat present in the CHO cell is able to transactivate the HIV-1 long terminal repeat (LTR) present in the HeLa cell leading to the expression of the β-Galactosidase enzyme. This expression is then measured using a Fluor Ace™ β-Galactosidase reporter assay kit (Bio-Rad cat no. 170-3150). This kit is a quantitative fluorescent assay that determines the level of expression of β-galactosidase using 4-methylumbelliferul-galactopyranoside (MUG) as substrate. β-Galactosidase hydrolyses the fluorogenic substrate resulting in release of the fluorescent molecule 4-methylumbelliferone (4 MU). Fluorescence of 4-methylumbelliferone is then measured on a fluorometer using an excitation wavelength of 360 nm and emission wavelength of 460 nm. […]

CCR5 = CCR5 (Homo sapiens, UniProt P51681); experiment: assay for CCR5 binding according to Combadiere et al
Excerpt: Biol., 60, 147-52 (1996); and/or by using the intracellular calcium mobilisation assays as described by the same authors. Cell lines expressing the receptor of interest include those naturally expressing the receptor, such as PM-1, or IL-2 stimulated peripheral blood lymphocytes (PBL), or a cell engineered to express a recombinant receptor, such as CHO, 300.19, L1.2 or HEK-293.

CCR5, sequence (P51681 whole entry): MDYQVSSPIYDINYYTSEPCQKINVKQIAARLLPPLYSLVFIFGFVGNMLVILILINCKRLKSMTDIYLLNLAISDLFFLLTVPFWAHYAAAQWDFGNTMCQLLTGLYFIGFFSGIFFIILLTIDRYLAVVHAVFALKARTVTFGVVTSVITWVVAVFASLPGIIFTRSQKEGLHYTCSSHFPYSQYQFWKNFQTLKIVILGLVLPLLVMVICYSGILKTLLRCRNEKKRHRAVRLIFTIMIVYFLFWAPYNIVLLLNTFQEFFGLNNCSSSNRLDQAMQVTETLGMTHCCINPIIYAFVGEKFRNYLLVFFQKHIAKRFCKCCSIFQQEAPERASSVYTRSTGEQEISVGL

IC50 (CCR5; ligand MIP-1α, read-out: IC50 CCR5 binding (MIP-1α))	IC50 (CCR5; ligand MIP-1β, read-out: IC50 CCR5 binding (MIP-1β))	IC50 (CCR5; ligand RANTES, read-out: IC50 CCR5 binding (RANTES))	SMILES	IC50 (HIV-1 fusion)	IC50 (CCR5; IC50 CCR5 binding (MIP-1α), ligand MIP-1α)	IC50 (CCR5; IC50 CCR5 binding (MIP-1β), ligand MIP-1β)	IC50 (CCR5; IC50 CCR5 binding (RANTES), ligand RANTES)
			CC(=O)N[C@@H](CCN1[C@@H]2CC[C@H]1C[C@@H](n1c(C)nc3c1CCN(C(C)=O)C3)C2)c1cccc(F)c1 [Example 1, N-{(1S)-3-[3-endo-(5-Acetyl-2-methyl-4,5,6,7-tetrahydro-1H-imidazo[4,5-c]pyridin-1-yl)-8-azabicyclo[3.2.1]oct-8-yl]-1-(3-fluorophenyl)propyl}acetamide]	0.13 nM			
7.5 nM	7.3 nM	6.7 nM	CC(=O)N[C@@H](CCN1[C@@H]2CC[C@H]1C[C@@H](n1c(C)nc3c1CCN(C(=O)C(C)C)C3)C2)c1cccc(F)c1 [Example 4, N-{(1S)-3-[3-endo-(5-Isobutyryl-2-methyl-4,5,6,7-tetrahydro-1H-imidazo[4,5-c]pyridin-1-yl)-8-azabicyclo[3.2.1]oct-8-yl]-1-(3-fluorophenyl)propyl}acetamide]				
			CCC(=O)N1CCc2c(nc(C)n2[C@H]2C[C@H]3CC[C@@H](C2)N3CC[C@H](NC(C)=O)c2cccc(F)c2)C1 [Example 5, N-{(1S)-3-[3-endo-(2-Methyl-5-propionyl-4,5,6,7-tetrahydro-1H-imidazo[4,5-c]pyridin-1-yl)-8-azabicyclo[3.2.1]oct-8-yl]-1-(3-fluorophenyl)propyl}acetamide]	0.12 nM	2.7 nM	2.4 nM	1.9 nM
